Laboratory results from the NIST ThermoML archive (doi:10.1021/je300526w).

Experiment: xn = mol fraction of the nth substance listed
Settings: Liquid, Vibrating tube method

CCCCCCCCCCCCCCCCCC [octadecane] + CCCCCCCCCC
mass density [kg/m3]
Settings	1000 kPa	2000 kPa	3000 kPa	4000 kPa	5000 kPa	6000 kPa	7000 kPa	8000 kPa	9000 kPa	10000 kPa
295.1 K, x2 = 0.5	759.7	760.4	761.1	761.7	762.4	763.1	763.7	764.4	765.1	765.8
295.2 K, x2 = 0.75	745.7	746.4	747.1	747.9	748.6	749.3	750	750.7	751.4	752.1
295.8 K, x2 = 0.9	733.9	734.7	735.4	736.2	736.9	737.6	738.4	739.1	739.9	740.6
